According to US12233086B2, “Biomarkers for neurogenerative disease” (Neuvivo, Inc., priority 2022, dated 2025):
Where “and” joins values, the source holds several entries; their conditions need not be identical. Identical values can stand only once. Like-named read-outs stand apart in the source and are kept apart here.

Tests used:
[1] = system: TGFB1; conditions: age≤65, baseline CRP>1.13 mg/L; p=0.02 for month 6
Method: (§1) Participants received a total of 20 infusions administered intravenously monthly over 6 cycles during a 6-month double-blind treatment period. […] The start of each cycle was separated by four weeks. Cycle 1 consisted of 30 min infusions over 5 consecutive days. Cycles 2, 3, 4, 5, and 6 each consisted of 3 consecutive daily infusions. ALSFRS-R and vital capacity measurements were performed monthly. The average rate of ALS disease progression (Average DP Rate) at baseline was defined as ALSFRS-R score change per month [(48−ALSFRS-R score at baseline)/months since ALS symptom onset from baseline]]. […] Plasma specimens for biomarker analysis were obtained at the beginning and end of the study (month 6, one month after last dose). All patients had to have completed the study to provide end of study plasma. The units expressed in this Example are hs-CRP units, abbreviated as CRP.

[2] = system: NfL; conditions: 6 months; p=0.09
[3] = system: ALS patients; conditions: for decline in VC over 6 months vs placebo (words): CRP>1.13 mg/L
Method: as §1
The clinical outcome data evaluated for the current study were the forced vital capacity measurements performed on all patients at baseline and every month until the end of study. Using the patient's age and height with the actual respiratory volume measured, the % predicted vital capacity (VC) was calculated as described.

[4] = system: ALS patients
[5] = system: TNF-a; conditions: age 40-65, CRP>1.13 mg/L
Method: (§2) Source of patient specimens: The plasma specimens had been stored at −80° C. since the trial ended and were all evaluated for biomarker levels.

[6] = system: IL-8; conditions: age 40-65, CRP>1.13 mg/L
Method: as §2

[7] = system: IL-6; conditions: age 40-65, CRP>1.13 mg/L
Method: as §2

[8] = system: ALS patients; conditions: plasma CRP greater than 1.13 mg/L; rates of ALSFRS-R and vital capacity decline; cited from earlier work
[9] = system: LPS:EGF; conditions: ratio increased over time in placebo
[10] = system: IL-18
Description: (§3) Description of ALS Phase 2A trial and participants: Participants received a total of infusions administered intravenously over 6 cycles during a 25-week double-blind treatment period. There were 4 weeks between the start of each cycle. Cycle 1 consisted of 5 consecutive daily infusions. Cycles 2, 3, 4, 5, and 6 each consisted of 3 consecutive daily infusions. Plasma specimens for biomarker analysis were obtained at the beginning and end of study.
as §2

[11] = system: LPS
Description: as §3, §2

[12] = system: LBP
Description: as §3, §2

[13] = system: IL-10
Description: as §3, §2

[14] = system: HGF
Description: as §3, §2

[15] = system: sCD163
Description: as §3, §2

[16] = system: Neopterin
Description: as §3, §2

[17] = system: EGF
Description: as §3, §2

[18] = system: CD16; conditions: phase 1 dose ascending study in ALS patients; cited from earlier work
[19] = NP001 2 mg/kg, N 59, age≤65, CRP>1.13 mg/L
[20] = NP001 2 mg/kg, N 64, age≤65, CRP>1.13 mg/L
[21] = NP001 2 mg/kg, N 68, age≤65, CRP>1.13 mg/L
[22] = NP001 2 mg/kg, N 69, age≤65, CRP>1.13 mg/L
[23] = NP001 2 mg/kg, N 72, age≤65, CRP>1.13 mg/L
[24] = NP001 2 mg/kg, N 74, age≤65, CRP>1.13 mg/L
[25] = CRP>1.13 mg/L, listed as sodium chlorite
[26] = CRP>1.13 mg/L, aged 40-65, Wilcoxon p 0.02
[27] = NP001 2 mg/kg, N 14, age 40-65, CRP>1.13 mg/L, six months
[28] = CRP>1.13 mg/L, aged 40-65, Wilcoxon p 0.04

sodium chlorite [NP001]
plasma TGFB1 levels over the 6-month trial vs placebo [1]: significantly increased
plasma NfL in treated non-progressors compared to progressors [2]: trend towards a loss of plasma NfL
average VC lost per month ([3]; 2 mg/kg, age≤65, CRP>1.13 mg/L, placebos 2.1%): 0.75 % VC per month
decline in VC over 6 months vs placebo (words) [3]: improved
decline in VC over 6 months vs placebo (words) ([3]; listed as sodium chlorite): significantly slowed
% VC change from baseline, Month 6, Mean [3, 19]: Mean: −9.1%
% VC change from baseline, Month 6, Median [3, 19]: Median: −5.4%
% VC change from baseline, Month 5, Mean [3, 20]: Mean: −9.4%
% VC change from baseline, Month 5, Median [3, 20]: Median: −6.4%
% VC change from baseline, Month 4, Mean [3, 21]: Mean: −8.1%
% VC change from baseline, Month 4, Median [3, 21]: Median: −5.4%
% VC change from baseline, Month 3, Mean [3, 22]: Mean: −6.5%
% VC change from baseline, Month 3, Median [3, 22]: Median: −3.8%
% VC change from baseline, Month 2, Mean [3, 23]: Mean: −4.6%
% VC change from baseline, Month 2, Median [3, 23]: Median: −2.6%
% VC change from baseline, Month 1, Mean [3, 24]: Mean: −2.5%
% VC change from baseline, Month 1, Median [3, 24]: Median: −0.9%
mean % VC change from baseline by the end of study, low CRP group ([3]; age≤65, CRP<1.13 mg/L, Placebo −13.5%, p=0.83): −16.4%
slower rate of VC loss compared to placebo ([3]; age≤65, CRP>1.13 mg/L, end of six-month study, p=0.05): > 64% and 64%
ALSFRS-R score lost over six months ([4]; 2 mg/kg, CRP>1.13 mg/L, age 40-65, placebos lost 4.6 units (p=0.03)): 1.2 units
proportion of non-progressors (no decrease in ALSFRS-R score at 6 months) ([4]; 2 mg/kg, age 40-65, CRP>1.13 mg/L, placebo 2 out of 17): 6 out of 15
decline in ALSFRS-R over 6 months vs placebo (words) ([4]; CRP>1.13 mg/L): highly significant difference
non-progression rate (no decrease in ALSFRS-R score at 6 months) ([4]; CRP>1.13 mg/L, age 40-65, placebos less than 10% (p=0.08)): 35%
decline in ALSFRS-R over 6 months vs placebo (words) [4, 25]: significantly slowed
relationship between drug dose and change in ALSFRS-R score over six months ([4]; plasma CRP above the median value (1.13 mg/L)): dose responsive relationship
clinical activity in all ALS patients of the phase 2A study ([4]; symptom onset within the past three years, no CRP or age cutoff): did not show significant clinical activity
plasma TNF-a values over the six-month study [5]: within the normal range and did not change
plasma IL-8 values over the six-month study [6]: within the normal range and did not change
plasma IL-6 values over the six-month study [7]: within the normal range and did not change
disease progression vs placebo, post hoc evaluation of phase 2 studies [8]: slowed disease progression
ratio of LPS to EGF, trend over time [9]: decreased over time
IL-18: % difference between NP001-treated and placebo at 6 months (% median change from baseline) [10, 26]: −58.3%
plasma IL-18 change relative to placebo over 6 months (words) [10, 25]: decreased
% IL-18 change from baseline, Mean [10, 27]: 25.8%
% IL-18 change from baseline, Median [10, 27]: −2.1%
LPS: % difference between NP001-treated and placebo at 6 months (% median change from baseline) [11, 28]: −51.8%
plasma LPS change relative to placebo over 6 months (words) [11, 25]: decreased
% LPS change from baseline, Mean [11, 27]: −22.0%
% LPS change from baseline, Median [11, 27]: −30.4%
plasma LBP change relative to placebo over 6 months ([12]; CRP>1.13 mg/L): decreased
LBP: % difference between NP001-treated and placebo at 6 months (% median change from baseline) ([12]; CRP>1.13 mg/L, aged 40-65, Wilcoxon p 0.006): −25.9%
% LBP change from baseline, Mean [12, 27]: −1.6%
% LBP change from baseline, Median [12, 27]: −5.4%
plasma IL-10 change relative to placebo over 6 months ([13]; CRP>1.13 mg/L): increased
IL-10: % difference between NP001-treated and placebo at 6 months (% median change from baseline) [13, 26]: 18.6%
% IL-10 change from baseline, Mean [13, 27]: 38.8%
% IL-10 change from baseline, Median [13, 27]: 0.0%
plasma HGF change relative to placebo over 6 months ([14]; CRP>1.13 mg/L): decreased
HGF: % difference between NP001-treated and placebo at 6 months (% median change from baseline) [14, 26]: −31.4%
% HGF change from baseline, Mean [14, 27]: −7.6%
% HGF change from baseline, Median [14, 27]: −14.3%
plasma sCD163 change relative to placebo over 6 months ([15]; CRP>1.13 mg/L): decreased
sCD163: % difference between NP001-treated and placebo at 6 months (% median change from baseline) [15, 26]: −19.6%
% CD163 change from baseline, Mean [15, 27]: −3.5%
% CD163 change from baseline, Median [15, 27]: −5.9%
plasma neopterin change relative to placebo over 6 months ([16]; CRP>1.13 mg/L): increased
Neopterin: % difference between NP001-treated and placebo at 6 months (% median change from baseline) [16, 28]: 18.1%
% Neopterin change from baseline, Mean [16, 27]: 13.9%
% Neopterin change from baseline, Median [16, 27]: 10.8%
plasma EGF change relative to placebo over 6 months ([17]; CRP>1.13 mg/L): increased
EGF: % difference between NP001-treated and placebo at 6 months (% median change from baseline) [17, 28]: 32.4%
% EGF change from baseline, Mean [17, 27]: 64.3%
% EGF change from baseline, Median [17, 27]: 6.5%
monocyte activation marker CD16 [18]: dose dependent down regulation
